Results reported in patent US9241961B2, “Medicinal product for treating gastrointestinal ulcers” (BIOCEDEX, priority 2009, dated 2016).

Assays:
[1] = system: gastric ibuprofen-induced ulcer; assay: model of gastric ibuprofen-induced ulcer in the rat; assay type: in vivo; conditions: ibuprofen alone 100 mg/kg/d oral for 6 days, male Wistar rat
Method: The inventors determined the anti-ulcer effect of Saccharomyces boulardii in the model of gastric ibuprofen-induced ulcer in the rat according to the protocol of Abraham et al. (2005) Dig Dis Sci 50:1 632-1 640. Male Wistar rats obtained from Janvier weighing between 200 and 220 grams are used after acclimatization for at least 7 days in the animal house (temp.=22 ±2° C.; humidity: 50±20%; food SAFE “A04”; nyctohemeral cycle: 12 hours of light and 12 hours of darkness). On D1, the rat receives the test product or the solvent by the oral route. Then, 1 hour later, the rat receives ibuprofen at 100 mg/kg by the oral route, or the solvent for the control group. The rats receive these treatments for 6 consecutive days. The animals go without food for 14-16 hours before the last administration of ibuprofen, but have access to drink. They are placed individually in a metal cage, the floor of which is a grating, to prevent coprophagia. On D6 the rat is sacrificed. […] Macroscopic evaluation of the gastric lesions is carried out as follows: • the stomach is spread out on a cork support with pins; • the number of ulcers on each stomach is counted; • the ulcerated area (mm^2) of haemorrhagic lesions is measured with a grid of squares (×10) and a stereo-microscope (Leica Wild M8) by measuring the length (mm) and width (mm) of each ulceration. […]

[2] = development of body weight of the rats during 6-day oral treatment; assay type: in vivo; conditions: Sb 0.3-1.0-3.0 g/kg/d and/or ibuprofen 100 mg/kg/d, 6 days, rat
Method: Male Wistar rats obtained from Janvier weighing between 200 and 220 grams are used after acclimatization for at least 7 days in the animal house (temp.=22 ±2° C.; humidity: 50±20%; food SAFE “A04”; nyctohemeral cycle: 12 hours of light and 12 hours of darkness).
On D1, the rat receives the test product or the solvent by the oral route. Then, 1 hour later, the rat receives ibuprofen at 100 mg/kg by the oral route, or the solvent for the control group. The rats receive these treatments for 6 consecutive days.

SMILES: CC(C)Cc1ccc(C(C)C(=O)O)cc1 (stereo not drawn) [ibuprofen]
- number of ulcers ([1]; gastric mucosa, recorded on day 6): 6.60±1.06 ulcers
- total area of ulceration ([1]; measured on day 6): 9.40±1.72 mm^2
- development of body weight relative to the untreated group [2]: do not alter the development of body weight
